Experimental findings from patent US7736624B2, “Methods and compositions for diagnostic and therapeutic targeting of COX-2” (priority 2006, dated 2010) are described below.

Where two headings read alike, the source gives them in different places.

One test addresses T1, ovine COX-1 (Ovis aries, UniProt P05979).
T1 construct: can be purified from ovine seminal vesicles by standard procedures; from tissue; host or cells: ovine seminal vesicles
T1 sequence (P05979 25-600): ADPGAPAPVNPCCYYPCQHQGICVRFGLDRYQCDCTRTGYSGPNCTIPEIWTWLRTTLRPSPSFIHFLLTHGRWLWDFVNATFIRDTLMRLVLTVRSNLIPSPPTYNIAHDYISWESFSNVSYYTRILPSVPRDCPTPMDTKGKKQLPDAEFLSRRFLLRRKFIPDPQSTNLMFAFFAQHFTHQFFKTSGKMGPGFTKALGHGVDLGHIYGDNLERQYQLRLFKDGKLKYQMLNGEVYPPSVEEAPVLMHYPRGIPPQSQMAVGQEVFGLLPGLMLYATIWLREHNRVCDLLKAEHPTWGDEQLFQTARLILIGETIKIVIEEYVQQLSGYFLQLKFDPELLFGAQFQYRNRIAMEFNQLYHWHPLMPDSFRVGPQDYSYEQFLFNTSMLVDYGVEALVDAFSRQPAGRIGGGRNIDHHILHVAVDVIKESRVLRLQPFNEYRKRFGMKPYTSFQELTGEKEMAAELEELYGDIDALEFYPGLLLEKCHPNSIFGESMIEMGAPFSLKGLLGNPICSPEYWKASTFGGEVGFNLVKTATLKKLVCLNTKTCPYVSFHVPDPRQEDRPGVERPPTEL
Description: IC50 determinations using purified enzymes (TLC assay), COX-1. It is filed as biochemical. The conditions noted are these: assayed against purified enzymes. The source says: (§1) Those skilled in the art will appreciate that an evaluation of the selectivity and efficacy of binding of the NSAID derivative to the COX-2 enzyme, e.g., after the derivative is synthesized, can be desirable. […] One example of an in vitro screening method takes advantage of the fact that both human and murine recombinant COX-2 can be expressed and isolated in pure form from an Sf9 cell expression system. […] Alternatively, membrane preparations from outdated human platelets can provide a source of human COX-1. […] The reaction is stopped by the addition of ethanol/methanol/1 M citrate, pH 4.0 (30:4:1). The extracted products are separated by thin layer chromatography (TLC), which allows quantitation of total product formation as well as assessment of product distribution. This assay is useful to define IC50 values for inhibition of either enzyme, and to determine time-dependency of inhibition. It also provides information concerning changes in products formed as a result of inhibition.
(§2) Reactions were terminated by solvent extraction in Et2O/CH3OH/1 M citrate, pH 4.0 (30:4:1). The phases were separated by centrifugation at 2000 g for 5 minutes and the organic phase was spotted on a 20×20 cm TLC plate (Lieselgel 60, EMD Chemicals, Inc., Gibbstown, N.J., United States of America). The plate was developed in EtOAc/CH2Cl2/glacial AcOH (75:25:1) at 4° C. Radiolabeled prostanoid products were quantitatively determined with a radioactivity scanner available from Bioscan, Inc. (Washington, D.C., United States of America). The percentage of total products observed at different concentrations of the presently disclosed compositions was divided by the percentage of products observed for protein samples preincubated for the same amount of time with DMSO.

The target of a further test is T2, COX-2 (Homo sapiens, UniProt P35354).
T2 sequence (P35354 18-604): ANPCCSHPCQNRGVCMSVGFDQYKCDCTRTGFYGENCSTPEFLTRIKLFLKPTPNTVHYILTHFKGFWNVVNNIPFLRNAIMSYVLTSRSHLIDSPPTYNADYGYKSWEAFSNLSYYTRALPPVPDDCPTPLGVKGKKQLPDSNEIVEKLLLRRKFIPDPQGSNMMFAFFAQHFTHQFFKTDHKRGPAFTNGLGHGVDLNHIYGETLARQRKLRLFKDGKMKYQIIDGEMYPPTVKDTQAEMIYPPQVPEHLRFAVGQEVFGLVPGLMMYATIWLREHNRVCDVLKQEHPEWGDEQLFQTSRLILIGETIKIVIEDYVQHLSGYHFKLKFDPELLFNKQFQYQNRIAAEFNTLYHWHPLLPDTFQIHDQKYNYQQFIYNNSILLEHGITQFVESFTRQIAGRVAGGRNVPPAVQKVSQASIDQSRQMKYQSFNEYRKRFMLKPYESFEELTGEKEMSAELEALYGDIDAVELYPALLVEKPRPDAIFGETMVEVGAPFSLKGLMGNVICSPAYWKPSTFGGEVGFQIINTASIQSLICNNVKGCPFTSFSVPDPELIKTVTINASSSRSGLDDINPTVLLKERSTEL
Description: IC50 determinations using purified enzymes (TLC assay), COX-2. It is filed as biochemical. The arrangement: made in house; host or cells: Sf9 insect cells.
Description: as §1, §2

Setting [1] is: Table 3, assayed against purified enzymes, read-out: IC50 COX-2.
[2] abbreviates: purified enzyme, read-out: COX-2 IC50.
The mark [3] stands for this setting: Table 2, assayed against purified enzymes, read-out: IC50 COX-2.

As for `COc1ccc2c(c1)c(CC(=O)NCCCNC(=O)c1ccc(C(=O)[O-])c(-c3c4ccc(=[N+](C)C)cc-4oc4cc(N(C)C)ccc34)c1)c(C)n2C(=O)c1ccc(Cl)cc1` [Compound 27aaa], the IC50 against ovine COX-1 (Table 3) is > 25 µM; at COX-2 (setting [1]), 3.9 µM. The like results for `COc1ccc2c(c1)c(CC(=O)NCCCNS(=O)(=O)c1ccc(/N=N/c3ccc(N(C)C)cc3)cc1)c(C)n2C(=O)c1ccc(Cl)cc1` [Compound 27bb] were, in that order, 0.214 µM and 0.134 µM. The like results for `COc1ccc2c(c1)c(CC(=O)NCCCN1CCN(CCCNC(=O)c3ccc(C(=O)[O-])c(C4=c5cc6c7c(c5Oc5c4cc4c8c5CCCN8CCC4)CCC[N+]=7CCC6)c3)CC1)c(C)n2C(=O)c1ccc(Cl)cc1` [Compound 27bbb] were, in that order, > 25 µM and > 25 µM. The like results for `COc1ccc2c(c1)c(CC(=O)NCCN1CCN(C(=O)c3ccc(C(=O)[O-])c(C4=c5cc6c7c(c5Oc5c4cc4c8c5CCCN8CCC4)CCC[N+]=7CCC6)c3)CC1)c(C)n2C(=O)c1ccc(Cl)cc1` [Compound 27ccc] were, in that order, > 25 µM and > 25 µM. `COc1ccc2c(CC(=O)NCCNC(=O)Cc3c(C)n(C(=O)c4ccc(Cl)cc4)c4ccc(OC)cc34)cc(=O)oc2c1` [Compound 27dd]: the IC50 against ovine COX-1 (Table 3) and at COX-2 (setting [1]) was > 25 µM in each case. As to `COc1ccc2c(c1)c(CC(=O)N1CCNCC1)c(C)n2C(=O)c1ccc(Cl)cc1` [Compound 27ddd], the values for the IC50 against ovine COX-1 (Table 3) and on COX-2 (setting [1]) were 1.8 µM and > 25 µM, respectively. The matching figures for `COc1ccc2c(c1)c(CC(=O)NCCCNC(=O)c1cc3ccccc3oc1=O)c(C)n2C(=O)c1ccc(Cl)cc1` [Compound 27ee]: > 25 µM and 0.6 µM. The like results for `CCN(CC)c1ccc2cc(C(=O)NCCCCNC(=O)Cc3c(C)n(C(=O)c4ccc(Cl)cc4)c4ccc(OC)cc34)c(=O)oc2c1` [Compound 27ff] were, in that order, > 25 µM and 0.031 µM. The like results for `COc1ccc2c(c1)c(CC(=O)N1CCN(C(=O)c3ccc(C(=O)[O-])c(C4=c5cc6c7c(c5Oc5c4cc4c8c5CCCN8CCC4)CCC[N+]=7CCC6)c3)CC1)c(C)n2C(=O)c1ccc(Cl)cc1` [Compound 27fff] were, in that order, > 25 µM and > 25 µM.

`CCN(CC)c1ccc2cc(C(=O)NCCCNC(=O)Cc3c(C)n(C(=O)c4ccc(Cl)cc4)c4ccc(OC)cc34)c(=O)oc2c1` [Compound 27gg]: the IC50 was > 25 µM against ovine COX-1 (Table 3) and 0.053 µM on COX-2 (setting [1]). The like results for `COc1ccc2c(c1)c(CC(=O)NCCNC(=O)c1ccc(C3=c4cc5c6c(c4Oc4c3cc3c7c4CCCN7CCC3)CCC[N+]=6CCC5)c(C(=O)[O-])c1)c(C)n2C(=O)c1ccc(Cl)cc1` [Compound 27ggg] were, in that order, 0.5 µM and 2.8 µM. With `COc1ccc2c(c1)c(CC(=O)NCCNC(=O)/C=C(C)/C=C/C=C(C)/C=C/C1=C(C)CCCC1(C)C)c(C)n2C(=O)c1ccc(Cl)cc1` [Compound 27h], the figures for the IC50 against ovine COX-1 (Table 1) and on COX-2 (setting [2]) were > 4 µM and 0.107 µM, respectively.

`COc1ccc2c(c1)c(CC(=O)NCCNC(=O)/C=C/c1ccc(N(C)C)cc1)c(C)n2C(=O)c1ccc(Cl)cc1` [Compound 27hh]: the IC50 against ovine COX-1 (Table 3) is > 25 µM; at COX-2 (setting [1]), 0.51 µM. The like results for `COc1ccc2c(c1)c(CC(=O)N1CCN(C(=O)c3ccc(C4=c5cc6c7c(c5Oc5c4cc4c8c5CCCN8CCC4)CCC[N+]=7CCC6)c(C(=O)[O-])c3)CC1)c(C)n2C(=O)c1ccc(Cl)cc1` [Compound 27hhh] were, in that order, 5.8 µM and 1.3 µM. The matching figures for `COc1ccc2c(c1)c(CC(=O)NCCNC(=S)Nc1ccc(-c3c4ccc(=O)cc-4oc4cc(O)ccc34)c(C(=O)O)c1)c(C)n2C(=O)c1ccc(Cl)cc1` [Compound 27jj]: 5.35 µM and > 25 µM. With `COc1ccc2c(c1)c(CC(=O)NCCCNC(=S)Nc1ccc(-c3c4ccc(=O)cc-4oc4cc(O)ccc34)c(C(=O)O)c1)c(C)n2C(=O)c1ccc(Cl)cc1` [Compound 27kk], the half-maximal inhibitory concentration (IC50) against ovine COX-1 (Table 3) and on COX-2 (setting [1]) was > 25 µM in each case. On to `COc1ccc2c(c1)c(CC(=O)NCCCCNC(=S)Nc1ccc(-c3c4ccc(=O)cc-4oc4cc(O)ccc34)c(C(=O)O)c1)c(C)n2C(=O)c1ccc(Cl)cc1` [Compound 27ll], for which the concentration for half-maximal inhibition (IC50) on ovine COX-1 (Table 3) is > 25 µM; at COX-2 (setting [1]), 3.1 µM.

`CCN(CC)c1ccc2c(-c3ccc(S(=O)(=O)NCCCCNC(=O)Cc4c(C)n(C(=O)c5ccc(Cl)cc5)c5ccc(OC)cc45)cc3S(=O)(=O)[O-])c3ccc(=[N+](CC)CC)cc-3oc2c1` [Compound 27lll]: the IC50 against ovine COX-1 (Table 3) and on COX-2 (setting [1]) was > 25 µM in each case. For `COc1ccc2c(c1)c(CC(=O)NCCCCNC(=O)c1ccc(C(=O)O)c(-c3c4cc(F)c(=O)cc-4oc4cc(O)c(F)cc34)c1)c(C)n2C(=O)c1ccc(Cl)cc1` [Compound 27mm], the IC50 is 22.5 µM against ovine COX-1 (Table 3) and 3.2 µM at COX-2 (setting [1]).

`CCCCNC(=O)Cc1c(C)n(C(=O)c2ccc(Cl)cc2)c2ccc(OC)cc12` [Compound 27nnn]: the IC50 on ovine COX-1 (Table 3) and on COX-2 (setting [1]) was > 25 µM in each case. On to `COc1ccc2c(c1)c(CC(=O)NCCCCNC(=O)CCCCCNC(=O)c1ccc(-c3c4ccc(=O)cc-4oc4cc(O)ccc34)c(C(=O)O)c1)c(C)n2C(=O)c1ccc(Cl)cc1` [Compound 27oo], for which the IC50 at ovine COX-1 (Table 3) and on COX-2 (setting [1]) was > 25 µM in each case. As for `COc1ccc2c(c1)c(CC(=O)NCCCCOC(=O)CCC(=O)O[C@H]1c3cc4c(cc3[C@@H](c3cc(OC)c(OC)c(OC)c3)[C@H]3C(=O)OC[C@@H]31)OCO4)c(C)n2C(=O)c1ccc(Cl)cc1` [Compound 27p], the 50% inhibitory concentration (IC50) was > 4 µM against ovine COX-1 (Table 1) and 0.147 µM on COX-2 (setting [2]). Regarding `COc1ccc2c(c1)c(CC(=O)NCCCCNC(=O)c1ccc(-c3c4ccc(=O)cc-4oc4cc(O)ccc34)c(C(=O)O)c1)c(C)n2C(=O)c1ccc(Cl)cc1` [Compound 27pp], the IC50 on ovine COX-1 (Table 3) and on COX-2 (setting [1]) was > 25 µM in each case. In the case of `CCN1C(=CC=CC=CC2=[N+](CCCCS(=O)(=O)[O-])c3ccc4ccccc4c3C2(C)C)C(C)(C)c2cc(CC(=O)NCCCCNC(=O)Cc3c(C)n(C(=O)c4ccc(Cl)cc4)c4ccc(OC)cc34)ccc21` [Compound 27qqq], the figures for the IC50 against ovine COX-1 (Table 3) and on COX-2 (setting [1]) were > 25 µM and 0.5 µM, respectively.

For the compound `COc1ccc2c(c1)c(CC(=O)NCCNC(=O)/C=C(C)/C=C/C=C(C)\C=C\C1=C(C)CCCC1(C)C)c(C)n2C(=O)c1ccc(Cl)cc1` [Compound 27s], the IC50 against ovine COX-1 (Table 2) is > 25 µM; on COX-2 (setting [3]) it was 0.388 µM. Regarding `COc1ccc2c(c1)c(CC(=O)N1CCN(C(=O)c3ccc(C(=O)O)c(-c4c5ccc(=O)cc-5oc5cc(O)ccc45)c3)CC1)c(C)n2C(=O)c1ccc(Cl)cc1` [Compound 27tt], the IC50 on ovine COX-1 (Table 3) and at COX-2 (setting [1]) was > 25 µM in each case. `COc1ccc2c(c1)c(CC(=O)Nc1ccc(S(=O)(=O)Nc3cc(OC)nc(OC)n3)cc1)c(C)n2C(=O)c1ccc(Cl)cc1` [Compound 27u]: the IC50 on COX-2 (setting [3]) turned out to be 0.148 µM. The same measure, in the same setting: for `Cc1ccc(-c2cc(CCC(=O)O)nn2-c2ccc(S(C)(=O)=O)cc2)cc1` [Compound 29e] the value was > 25 µM.

For orientation: IC50 means the concentration needed to halve the response being measured.
